This passage reports hit_pair_ratio results from paper PMC12057046, “Elucidation of short linear motif-based interactions of the MIT and rhodanese domains of the ubiquitin-specific protease 8” (Biology Direct, 2025).

One assay deals with T1, USP8 Rhod domain (Homo sapiens, UniProt P40818).
T1 construct: USP8 Rhod (174–317) (UniProt: P40818); GST (cleaved yes); made in house; host or cells: Escherichia coli BL21-Gold (DE3)
T1 sequence (P40818 174-317): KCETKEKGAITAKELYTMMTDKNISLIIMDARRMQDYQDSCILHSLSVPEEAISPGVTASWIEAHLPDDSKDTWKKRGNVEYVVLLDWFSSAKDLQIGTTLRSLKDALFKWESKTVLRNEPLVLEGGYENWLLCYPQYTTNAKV
Description: Peptide-phage display-based deep mutational scanning (DMS), USP8 Rhod domain. The assay is classed as binding. As to conditions: ProP-PD pairs, bait USP8_Rhodanese__P40818_174_317; wild-type/mutant pair, wild type KIAA1614 569-584 GMERVLGGLSSPLRLL (wt_00013). As for the experimental part:
Four rounds of phage selections were carried out using the second generation human disorderome library or the constructed deep mutational scanning library. At least three individual replicates were used for each bait protein. 10 µg of GST-tagged proteins or GST control (diluted in PBS from the stock of proteins kept in the purification elution buffer) were immobilized in 100 µL PBS on a 96-well MaxiSorp (Nunc) plate overnight at 4 °C. The plates were incubated with blocking buffer (with 0.5% BSA in PBS) for 1 h at 4 °C followed by washing with 0.05% Tween 20 in PBS four times. The naïve phage library (10^11 CFU) was diluted in 1/5th volume PEG/NaCl (20% PEG-8000, 0.4 M NaCl) and 1X PBS, incubated on ice for 10 min and centrifuged at 10,000 [drawing 3] g for 10 min. The pellet was resuspended in the volume of PBS (100 µL/ well). The GST-coated control plate was incubated with 100 µL library per well in PBS for 1 h at 4 °C to remove non-specific binders. The supernatant was transferred to the target wells and incubated for 2 h at 4 °C. The wells were washed five times with 0.05% Tween 20 in PBS and the bound phages were eluted with 100 µL per well log-phase E. coli OmniMAX by incubating at 37° C while shaking. After 30 min, M13KO7 helper phages were added and incubated for an additional 45 min. The bacterial cultures were transferred to 1 mL 2YT supplemented with 100 µg/mL carbenicillin, 30 µg/mL kanamycin and 0.3 mM IPTG and grew overnight at 37 °C while shaking. The following day the cultures were centrifuged for 10 min at 2,000 [drawing 4] g, 4 °C. 1/10th volume of 10 [drawing 5] PBS was added to adjust the pH and heated at 65 °C for 10 min. The phage pools from each round were used as in-phages for the next round of selections.
The samples were prepared for NGS as previously described. […] The PCR products were normalized with 25 µL Mag-bind Total Pure NGS beads (Omega Biotek) and 10 µL of each eluted sample (Qiagen Elution Buffer) was pooled and cleaned-up with a PCR purification kit (Qiagen). The PCR product was confirmed by 2% agarose electrophoresis and the band was extracted with QIAquick Gel extraction Kit (Qiagen) and eluted with 30 µL TE buffer. The dsDNA was quantified using QuantiT PicoGreen dsDNA Assay Kit (Thermo Fisher) and sent for NGS (Illumina MiSeq v3, 1 × 150 bp read setup, 20% PhiX, NGI SciLifeLab facility, Sweden). The NGS data were demultiplexed, adapter regions were trimmed and sequences with an average quality of at least 20 were translated to peptide sequences. The NGS data were analysed using custom Python scripts. The total read NGS counts for each selection experiment of each peptide sequence were compiled and annotated in PepTools (https://slim.icr.ac.uk/tools/peptools/). Since ProP-PD is in essence a competition assay, the possibility of the input phage library influencing the selection outcome was explored. […] Pearson correlation coefficient and p-value were calculated using Python’s SciPy library.
With GLERVLGGLSSPLRLL, the hit_pair_ratio is given as 1.84.
On to GMARVLGGLSSPLRLL, for which the hit_pair_ratio is 8.89.
For the sequence GMDRVLGGLSSPLRLL, the hit_pair_ratio is listed as -1.75.
The same measure, in the same setting: the figure for GMEAVLGGLSSPLRLL is 131.67; for GMELVLGGLSSPLRLL it is 160.99; for GMENVLGGLSSPLRLL it is 107.32.

The assay is the same for the next values; noted with them: bait USP8_Rhodanese__P40818_174_317; wild-type/mutant pair ratio of averaged fractions; negative values where mutant fraction is higher.
As for GLALWEAKMKQLANRA, the hit_pair_ratio stood at 73.80.
Consider GLALWEAKMKQLAQRA, for which the hit_pair_ratio is 119.01.
Turning to GLALWEAKMKQLASRA, the hit_pair_ratio is 65.49.
As to GLALWEAKMKQLATRA, the hit_pair_ratio was found to be 553.50.
As to GLALWEAKMKQLAVRA, the hit_pair_ratio is on record as 20.13.
Consider GLALWEAKMKQLAWRA, for which the hit_pair_ratio amounted to 1107.01.
As to GLALWEAKMKQLAYRA, the hit_pair_ratio was 208.81.
Same read-out and setting: next, GLALWEAKMKQLDERA: 184.50; GLALWEAKMKQLEERA: -19.29.
The same measure, in the same setting: next, GLALWEAKMKQLGERA: -3.00; GLALWEAKMKQLHERA: 1.77; GLALWEAKMKQLIERA: 369.00.
GLALWEAKMKQLKERA: the hit_pair_ratio is 184.50.
For the sequence GLALWEAKMKQLLERA, the hit_pair_ratio was 31.22.
As to GLALWEAKMKQLMERA, the hit_pair_ratio was determined as 81.38.
On the same count and under the same terms, the figure for GLALWEAKMKQLNERA is 17.57; for GLALWEAKMKQLPERA it is 87.51.
The same measure, in the same setting: the figure for GLALWEAKMKQLQERA is 2.19; for GLALWEAKMKQLTERA it is 133.35; for GLALWEAKMKQLVERA it is -3.40.
Same read-out and setting: the figure for GLALWEAKMKQLYERA is 195.90; for GLALWEAKMKQMAERA it is 1107.01; for GLALWEAKMKQRAERA it is 417.62.
Take GLALWEAKMKQSAERA: the hit_pair_ratio amounted to 1107.01.
On the same count and under the same terms, next, GLALWEAKMKRLAERA: 29.55; GLALWEAKMKSLAERA: 1.39; GLALWEAKMKTLAERA: 33.74.
Turning to GLALWEAKMKVLAERA, the hit_pair_ratio stood at 553.50.
Take GLALWEAKMKWLAERA: the hit_pair_ratio came to 221.40.
With GLALWEAKMKYLAERA, the hit_pair_ratio came to 55.35.
With GLALWEAKMLQLAERA, the hit_pair_ratio is recorded as 26.20.
Regarding GLALWEAKMMQLAERA, the hit_pair_ratio is on record as 417.62.
Still for that read-out and setting: next, GLALWEAKMPQLAERA: 553.50; GLALWEAKMQQLAERA: 31.63.
GLALWEAKMRQLAERA: the hit_pair_ratio is 1.94.
GLALWEAKMSQLAERA: the hit_pair_ratio is given as -7.21.
Same read-out and setting: the figure for GLALWEAKMTQLAERA is 29.92.
As to GLALWEAKMVQLAERA, the hit_pair_ratio is -1.44.
Same read-out and setting: the figure for GLALWEAKMWQLAERA is 2.24; for GLALWEAKMYQLAERA it is 31.05.

Still in this assay, the particulars now being: wild type/mutant pair; bait USP8_Rhodanese__P40818_174_317; vs hit_library_peptide_wt GLALWEAKMKQLAERA; negative where mutant fraction exceeds wild type; ProP-PD pairs (sheet S7.B).
In the case of GLALWEAKMNQLAERA, the hit_pair_ratio is -19.47.
With GLALWEAKNKQLAERA, the hit_pair_ratio turned out to be 276.75.
In turn, GLALWEAKPKQLAERA yielded a hit_pair_ratio of 195.90.
Same read-out and setting: the figure for GLALWEAKQKQLAERA is 151.61.
Regarding GLALWEAKRKQLAERA, the hit_pair_ratio is listed as 44.28.
In the case of GLALWEAKSKQLAERA, the hit_pair_ratio was -2.49.
The same measure, in the same setting: next, GLALWEAKTKQLAERA: 26.45; GLALWEAKVKQLAERA: 369.00; GLALWEAKWKQLAERA: 2.15.
As to GLALWEAKYKQLAERA, the hit_pair_ratio amounted to 123.00.
In the case of GLALWEANMKQLAERA, the hit_pair_ratio came to 208.81.
In turn, GLALWEAPMKQLAERA showed a hit_pair_ratio of 276.75.
GLALWEAQMKQLAERA returned a hit_pair_ratio of 1107.01.
GLALWEEKMKQLAERA yielded a hit_pair_ratio of 553.50.
Same read-out and setting: the figure for GLALWEFKMKQLAERA is 1107.01.
In turn, GLALWEGKMKQLAERA came in with a hit_pair_ratio of 68.11.
GLALWEHKMKQLAERA: the hit_pair_ratio worked out at 2.05.
The same measure, in the same setting: next, GLALWEIKMKQLAERA: 123.00; GLALWELKMKQLAERA: 1107.01; GLALWEMKMKQLAERA: 20.50.
On to GLALWENKMKQLAERA, for which the hit_pair_ratio is recorded as 24.65.
As for GLALWEPKMKQLAERA, the hit_pair_ratio stood at 87.84.
Same read-out and setting: next, GLALWEQKMKQLAERA: -1.30; GLALWERKMKQLAERA: 1107.01; GLALWESKMKQLAERA: 208.81.
The sequence GLALWETKMKQLAERA registered a hit_pair_ratio of 11.88.
Same read-out and setting: next, GLALWEVKMKQLAERA: 92.62.
Same read-out and setting: next, GLALWEWKMKQLAERA: 23.98; GLALWEYKMKQLAERA: 208.81.
On to GLALWFAKMKQLAERA, for which the hit_pair_ratio stood at 553.50.
Same read-out and setting: the figure for GLALWGAKMKQLAERA is 24.44; for GLALWHAKMKQLAERA it is 123.00.
GLALWSAKMKQLAERA showed a hit_pair_ratio of 21.71.
The sequence GLALWVAKMKQLAERA returned a hit_pair_ratio of 417.62.
GLALWYAKMKQLAERA yielded a hit_pair_ratio of 417.62.
Turning to GLAMWEAKMKQLAERA, the hit_pair_ratio is reported as -5.97.
GLANWEAKMKQLAERA: the hit_pair_ratio is 4.24.
Still for that read-out and setting: next, GLAPWEAKMKQLAERA: 1107.01.
Turning to GLAQWEAKMKQLAERA, the hit_pair_ratio was 10.90.
Same read-out and setting: next, GLARWEAKMKQLAERA: 12.82; GLASWEAKMKQLAERA: 101.08.
The sequence GLATWEAKMKQLAERA yielded a hit_pair_ratio of 8.05.
With GLAVWEAKMKQLAERA, the hit_pair_ratio is listed as -2.03.
Regarding GLDLWEAKMKQLAERA, the hit_pair_ratio is recorded as -4.35.
Same read-out and setting: next, GLELWEAKMKQLAERA: -13.35.
GLFLWEAKMKQLAERA had a hit_pair_ratio of 1107.01.
Take GLGLWEAKMKQLAERA: the hit_pair_ratio stood at 123.66.
Sequence GLHLWEAKMKQLAERA showed a hit_pair_ratio of 553.50.
The sequence GLILWEAKMKQLAERA came in with a hit_pair_ratio of 1107.01.
The sequence GLKLWEAKMKQLAERA had a hit_pair_ratio of 369.00.
In turn, GLLLWEAKMKQLAERA yielded a hit_pair_ratio of 1107.01.
As for GLMLWEAKMKQLAERA, the hit_pair_ratio stood at 20.89.
Still for that read-out and setting: next, GLPLWEAKMKQLAERA: 10.62.
For the sequence GLQLWEAKMKQLAERA, the hit_pair_ratio was -1.71.
On the same count and under the same terms, the figure for GLSLWEAKMKQLAERA is 33.04.
Same read-out and setting: next, GLTLWEAKMKQLAERA: 92.62; GLVLWEAKMKQLAERA: 27.71.
Take GLWLWEAKMKQLAERA: the hit_pair_ratio is given as 49.74.
Consider GLYLWEAKMKQLAERA, for which the hit_pair_ratio was found to be 27.03.
GMALWEAKMKQLAERA returned a hit_pair_ratio of 7.96.
